Experimental data: patent US4353907A, “Amidino hydrazone . C17 H29-35 COOH insect and fire ant bait formulations” (American Cyanamid Co., priority 1981, dated 1982)
Several values for one entry are separate records, joined by “and”; a condition that tells them apart may be missing. Equal values may be shown once.

Key:
[1] = Determination of Solubility in Soybean Oil (HPLC of oil phase after equilibration); format: physicochemical; settings: for % Salt in Oil Layer / % Amidino Hydrazone in Oil Layer (w/w), Average: 25° C.; for % Salt in Oil Layer: footnote * formula (drawing 4); for % Amidino Hydrazone in Oil Layer (w/w), Average: average of duplicates; for % Amidino Hydrazone in Oil Layer (w/w): individual duplicate, equilibrated at 100° C. 4 hours, cooled to 25° C.
Experimental: Each salt of example 1 was equilibrated with approximately 3/8 its weight of soybean oil at 100° C. for 4 hours with ultrasonic agitation. The resulting mixtures were centrifuged while hot and allowed to cool to room temperature (25° C.). […] Duplicate samples of the oil phases were analyzed by solution in methylene chloride and quantitation by HPLC.

[2] = system: Southern armyworm (Spodoptera eridania), 3rd instar; experiment: Screening: Southern armyworm larva; format: in vivo
Experimental: Insect: Southern armyworm (Spodoptera eridania). 3rd instar.
Test: Screening: Southern armyworm larva.
Formulation: 2:1 acetone:water.
Plant Preparation: Sieva lima bean plants are selected with primary leaves 7-8 cm long and cut back to one plant per pot.
Insect Preparation: A 100×10 mm petri dish is prepared by putting a damp filter paper in the bottom and ten 3rd instar larvae are added. These are about 10 mm long.
Test Procedure: The bean plant is dipped for 3 seconds with agitation in the test formulation and placed in the hood to dry. One leaf is removed from the plant and placed in the petri dish with the caterpillars.
Holding Conditions: The dish is held at 27° C. The plant with the remaining leaf is held in the greenhouse under high intensity lights.
Observations: Mortality counts are made after 2 days and recorded using the standard 0-9 rating system.

[3] = system: Bean aphid (Aphis fabae), mixed stages; experiment: Screening: bean aphid test; format: in vivo; settings: 100 ppm
Experimental: Insect: Bean aphid (Aphis fabae), mixed stages.
Test: Screening: bean aphid test
(§1) Formulation: 50:50 acetone:water.
Plant Preparation: 5 cm pots each containing a nasturtium plant about 5 cm tall are infested with 100 to 400 aphids 2-4 days before the test.
Insect Preparation: See above.
Test Procedure: The pot of aphids is sprayed for 2 revolutions of a 4 rpm turntable in the hood, using a #154 DeVilbiss atomizer at 1500 kg/m^2 pressure. The spray tip is held about 15 cm from the plant and the spray directed so as to give complete coverage of the aphid and the plants. The sprayed plants are laid on their sides on white enamel trays measuring 24×34 cm.
Holding Conditions: Trays of sprayed pots are held at 27° C. for 1 day.
Observations: Mortality estimates are made and data recorded with the standard […] rating system.
NOTE: For LD50 determinations, a clean tray 24×34 cm is ruled off into a grid with 3 cm spacing and the live aphids gently brushed off the plant onto the gridded tray. This makes it easier to make an exact count of the number of aphids on the plant. Dead aphids, which fall off the plant onto the tray, are counted where they fall, since they stick to the tray and cannot be brushed onto a gridded tray for counting.

[4] = system: Tobacco budworm (Heliothis vireacens), 1st instar; experiment: Screening, TBW 1st instar test; format: in vivo
Experimental: Insect: Tobacco budworm (Heliothis vireacens), 1st instar.
Test: Screening, TBW 1st instar test.
(§2) Formulation: 50:50 acetone:water
Concentrations: Screening: 300, 100, 10, 1 ppm
(§3) Plant Preparation: Cotton plants are selected to give plants with the first true leaf expanded to about 6-7 cm in length.
Insect Preparation: Cheesecloth on which moths have oviposited is daily cut into 10-20 mm squares containing 50-100 eggs each. These squares are held at 21° C. for 2 days and 24° C. for another day in order to coordinate hatch with testing times. Thus, the larvae are 0-2 hours old at time of use.
Test Procedure: The cotton plant is dipped in the test formulation, agitated for 3 seconds, and placed in the hood to air dry. When dry, the leaf is removed from the plant and placed in an "8-ounce Dixie cup (240 ml, 6 cm high, top diameter 9.5 cm, bottom diameter (8 cm)" to which a 5 cm length of damp cotton dental wick had been previously added. A square of cheesecloth with newly hatched budworm larvae on it is placed on the treated leaf and a clear plastic lid is put on the cup.
Holding Conditions: The cups are held at 27° C. for 2 days.
Observations: Kill of larvae. This may require the use of a low-power microscope to determine if the worms are dead or just not feeding. Observation of amount of feeding is also recorded. Where there is only trace to light feeding, the cup is held an extra day and results recorded at that time. The standard rating system of 0-9 is used.

[5] = system: Tobacco budworm (Heliothis virescens), egg; experiment: Screening, TBW egg test (tobacco budworm eggs); format: in vivo; settings: 300 ppm
Excerpt: Insect: Tobacco budworm (Heliothis virescens), egg
Test: Screening, TBW egg test.
as §1
Concentrations: Screening: 300, 100, 10, 1 ppm.
as §3
Insect Preparation: Eggs are collected on cheesecloth used as the lid for the moth oviposition chamber in the rearing colony. This cloth is cut into 10-20 mm squares containing about 50-100 budworm eggs laid within the past day. Thus, eggs are 6-30 hours old when used in the test.
Test Procedures: The cotton plant is dipped in the test formulation and agitated for 3 seconds. A square of cheesecloth with eggs is also dipped in the test formulation, placed on the treated leaf and the combination placed in the hood to air dry. When dry, the leaf and egg cloth are removed from the plant, and placed in an "8-ounce Dixie cup (240 ml. 6 cm high, top diameter 9.5 cm. bottom diameter 8 cm)," to which a 5 cm length of damp cotton dental wick had been previously added. A clear plastic lid is placed on the cup.
Holding Conditions: The cups are held at 27° C. until the eggs hatch, which occurs in about 2 days.
Observations: Kill of eggs. This may require the use of a low-power microscope to determine if the lack of visible mobile caterpillars is due to lack of egg hatch or due to the newly hatched caterpillars dying on the leaf under and near the cheesecloth. The standard rating system of 0-9 is used to record the results.

[6] = system: Phosphate resistant 2-spotted spider mite (Tetranychus urticae); experiment: Screening: Mite test; format: in vivo; settings: 300 ppm
Experimental: Mite: Phosphate resistant 2-spotted spider mite
(Tetranychus urticae), adults, eggs, nymphs.
Test: Screening: Mite test.
as §2
Plant Preparation: Sieva lima bean plants with primary leaves 7-8 cm long are selected and cut back to one plant per pot. A small piece is cut off of a leaf taken from the main mite colony and placed on each leaf of the test plants. This is done about 1-3 hours before use to allow the mites to move over to the test plant and lay eggs before treatment. The size of the piece cut is varied to try to obtain about 100 mites per leaf.
Mite Preparation: See above.
Test Procedure: The piece of leaf used to transfer mites is removed and discarded. The mite-infested plant is dipped in the test formulation for 3 seconds with agitation, and the plant set in the hood to dry.
Holding Conditions: The plants are held for 2 days at 27° C. for the first observation, and the second leaf is kept on the plant for another 5 days for the final observation.
Observations: After 2 days one leaf is removed and examined under a 10×microscope to determine the mortality of the adult mites. The second leaf is examined similarly 7 days after treatment to observe the kill of eggs and of newly hatched nymphs giving a measure of ovicidal and residual action, respectively. Any evidence of phytotoxicity from the test treatment is noted. The standard rating system of 0-9 is used to record the mite data.

[7] = Solubility of the toxicant in fatty acids and edible fats and oils; format: physicochemical
[8] = listed as Amidino Hydrazone Salt Of Linolenic Acid
[9] = listed as Amidino Hydrazone Salt Of Linoleic Acid
[10] = listed as Amidino Hydrazone Salt Of Stearic Acid
[11] = listed as Amidino Hydrazone Salt Of Oleic Acid

| SMILES | 3rd Instar Armyworms control rating ([2]; 100 ppm) | 3rd Instar Armyworms control rating ([2]; 1000 ppm) | 1st Instar Tobacco Budworms control rating ([4]; 10 ppm) | Budworm Eggs control rating [5] | P-res. Mites control rating [6] | 3rd Instar Armyworms control rating ([2]; 10 ppm) | Aphids control rating [3] | 1st Instar Tobacco Budworms control rating ([4]; 100 ppm) | 1st Instar Tobacco Budworms control rating ([4]; 300 ppm) | further results |
| --- | --- | --- | --- | --- | --- | --- | --- | --- | --- | --- |
| CC1(C)CN=C(NN=C(C=Cc2ccc(C(F)(F)F)cc2)C=Cc2ccc(C(F)(F)F)cc2)NC1 [Amidino Hydrazone Linolenate] | 9 (100% control) | 9 (100% control) | 0 (0 control) | 0 (0 control) | 0 (0 control) |  |  |  |  | % Salt in Oil Layer [1, 8]: 55%; % Amidino Hydrazone in Oil Layer (w/w), Average [1, 8]: 35.4 % (w/w); % Amidino Hydrazone in Oil Layer (w/w) [1, 8]: 35.9 % (w/w) and 34.8 % (w/w); 3rd Instar Armyworms control rating ([2]; 10 ppm, listed as Amidino Hydrazine Linolenate): 9 (100% control); Aphids control rating ([3]; listed as Amidino Hydrazine Linolenate): 5 (60% control); 1st Instar Tobacco Budworms control rating ([4]; 100 ppm, listed as Amidino Hydrazine Linolenate): 9 (100% control); 1st Instar Tobacco Budworms control rating ([4]; 300 ppm, listed as Amidino Hydrazine Linolenate): 9 (100% control) |
| CC1(C)CN=C(NN=C(C=Cc2ccc(C(F)(F)F)cc2)C=Cc2ccc(C(F)(F)F)cc2)NC1 [Amidino Hydrazone, 1,5-bis(alpha,alpha,alpha-trifluoro-p-tolyl)-1,4-pentadien-3-one (1,4,5,6-tetrahydro-5,5-dimethyl-2-pyrimidinyl)hydrazone] |  |  |  |  |  |  |  |  |  | solubility in edible fats and oils attractive to fire ants ([7]; edible fats and oils as solvents for the toxicant): not very good solvents; solubility in fatty acids ([7]; oleic, linoleic, linolenic, stearic acid and mixtures): readily soluble |
| CC1(C)CN=C(NN=C(C=Cc2ccc(C(F)(F)F)cc2)C=Cc2ccc(C(F)(F)F)cc2)NC1 [Amidino Hydrazone Linoleate] | 9 (100% control) | 9 (100% control) | 0 (0 control) | 0 (0 control) | 0 (0 control) | 9 (100% control) | 0 (0 control) | 7 (80% control) | 9 (100% control) | % Salt in Oil Layer [1, 9]: 47%; % Amidino Hydrazone in Oil Layer (w/w), Average [1, 9]: 30.3 % (w/w); % Amidino Hydrazone in Oil Layer (w/w) [1, 9]: 30.3 % (w/w) and 30.4 % (w/w) |
| CC1(C)CN=C(NN=C(C=Cc2ccc(C(F)(F)F)cc2)C=Cc2ccc(C(F)(F)F)cc2)NC1 [Amidino Hydrazone Stearate, 1,4-pentadien-3-one, 1,5-bis(alpha,alpha,alpha-trifluoro-p-tolyl)-(1,4,5,6-tetrahydro-5,5-dimethyl-2-pyrimidinyl)hydrazone stearate] | 9 (100% control) | 9 (100% control) | 0 (0 control) | 0 (0 control) | 0 (0 control) | 9 (100% control) | 8 (90% control) | 9 (100% control) | 9 (100% control) | % Salt in Oil Layer [1, 10]: 47%; % Amidino Hydrazone in Oil Layer (w/w), Average [1, 10]: 30.1 % (w/w); % Amidino Hydrazone in Oil Layer (w/w) [1, 10]: 29.8 % (w/w) and 30.4 % (w/w) |
| CC1(C)CN=C(NN=C(C=Cc2ccc(C(F)(F)F)cc2)C=Cc2ccc(C(F)(F)F)cc2)NC1 [Amidino Hydrazone Oleate] | 9 (100% control) | 9 (100% control) | 0 (0 control) | 0 (0 control) | 0 (0 control) | 6 (70% control) | 0 (0 control) | 0 (0 control) | 7 (80% control) | % Salt in Oil Layer [1, 11]: 44%; % Amidino Hydrazone in Oil Layer (w/w), Average [1, 11]: 28.0 % (w/w); % Amidino Hydrazone in Oil Layer (w/w) [1, 11]: 27.8 % (w/w) and 28.1 % (w/w) |
